Reference: patent US20160376240A1, “6 Phenyl or 6 Pyridin 3 YL Indazole Derivatives and Methods of Use” (ABBVIE INC., priority 2014, published 2016)

Key:
Type in all cases: biochemical
[1] = biological target: T1, TrkA (Homo sapiens, UniProt P04629); assay: TrkA kinase inhibition, HTRF assay; conditions: LCK peptide substrate 125 nM, TrkA 2-10 nM pre-incubated with ATP 200 μM
T1 construct: purchased Invitrogen PV3144
Summary of the method: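 TrkA (2-10 nM) preactivated 20 min with 200 μM ATP in HEPES pH 7.4 with Mg2+/Mn2+, then compound for 10 min, then 125 nM biotinylated LCK-peptide for 1 h at ambient temperature. HTRF 665/620 ratio read; IC50 fitted from initial-rate percent inhibition.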

[2] = biological target: T2, TrkB (Homo sapiens, UniProt Q16620); assay: TrkB kinase inhibition, HTRF assay; conditions: LCK peptide substrate, assay ATP concentration targeted 5 μM
T2 construct: purchased Invitrogen PV3616
T2 sequence (Q16620 32-822): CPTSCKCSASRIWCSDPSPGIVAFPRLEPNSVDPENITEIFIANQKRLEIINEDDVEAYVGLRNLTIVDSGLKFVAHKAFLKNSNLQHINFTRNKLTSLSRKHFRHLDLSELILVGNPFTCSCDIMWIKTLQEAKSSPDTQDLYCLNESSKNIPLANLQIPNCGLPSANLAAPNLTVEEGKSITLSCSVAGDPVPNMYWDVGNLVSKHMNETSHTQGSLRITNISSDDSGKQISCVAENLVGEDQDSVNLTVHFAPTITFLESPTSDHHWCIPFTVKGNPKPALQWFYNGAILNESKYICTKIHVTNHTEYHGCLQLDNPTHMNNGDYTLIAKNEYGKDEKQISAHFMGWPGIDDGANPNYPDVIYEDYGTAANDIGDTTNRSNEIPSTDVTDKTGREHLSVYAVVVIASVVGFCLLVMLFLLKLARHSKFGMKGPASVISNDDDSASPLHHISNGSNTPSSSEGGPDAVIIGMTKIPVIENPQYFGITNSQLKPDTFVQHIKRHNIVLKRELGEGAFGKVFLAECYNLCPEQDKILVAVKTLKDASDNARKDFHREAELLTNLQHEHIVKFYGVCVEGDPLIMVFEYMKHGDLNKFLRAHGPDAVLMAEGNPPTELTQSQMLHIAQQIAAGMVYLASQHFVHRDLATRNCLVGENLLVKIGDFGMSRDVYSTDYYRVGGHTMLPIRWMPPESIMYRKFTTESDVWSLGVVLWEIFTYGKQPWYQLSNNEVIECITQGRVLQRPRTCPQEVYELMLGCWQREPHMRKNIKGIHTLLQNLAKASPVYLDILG
Protocol: (§1) TrkA, TrkB, and TrkC enzymes were obtained from Invitrogen (as catalog numbers PV3144, PV3616, and PV3617, respectively). The ability of a compound to inhibit the enzymatic activity of the TrkA, TrkB, and TrkC enzymes was determined in separate assays. Enzyme activity was measured in an HTRF® (homogeneous time resolved fluorescence) assay, which detects enzymatic phosphorylation of a biotinylated synthetic peptide substrate (an LCK peptide analog, biotin-ahx-GAEEEIYAAFFA, from Genemed Synthesis). Phosphorylation is assessed by HTRF® in the presence of an anti-phosphotyrosine antibody conjugated to Eu^3+ cryptate (Cisbio) as donor fluorophore, and streptavidin conjugated to allophycocyanin (ProZyme) as acceptor fluorophore. The HTRF® signal was detected at two different wavelengths (620 nm and 665 nm) which were used to calculate the fluorescence ratio.
(§2) Each enzyme was titrated to a concentration optimized to ensure accurate measurement of the initial reaction rate. To allow the Trk enzymes to undergo activation and auto-phosphorylation, a 20 minute pre-incubation with ATP was carried out (at twice the final targeted enzyme and ATP concentration) prior to addition of test compound and the peptide substrate.
(§3) TrkA in vitro assays were performed by pre-incubating TrkA (2-10 nM) with ATP (200 μM) for 20 minutes at ambient temperature in 50 mM HEPES pH 7.4, 10 mM MgCl2, 2 mM MnCl2, 100 μM Na3VO4, 1 mM dithiothreitol, 0.01% BSA (bovine serum albumin). Then, to the activated Trk enzyme mixture was added the test compound in 2% dimethyl sulfoxide. After 10 minutes, the peptide substrate (125 nM) was added. After 1 hour, enzyme reactions were terminated by addition of equal reaction volumes of detection/stop reagent (containing 0.2 μg/mL anti-phosphotyrosine monoclonal antibody labeled with europium from Cisbio (catalog# PT66-K), and 4 μg/mL PhycoLink® Streptavidin-Allophycocyanin conjugate from ProZyme (catalog# PJ25S) in 60 mM EDTA in 40 mM HEPES pH 7.4, 480 mM KF, 0.01% Tween® 20 and 0.1% BSA bovine serum albumin) Reaction plates were stored at 4° C. overnight before reading the fluorescence ratio signal on a PerkinElmer EnVision™ fluorescence detector. Individual reaction wells were stopped at time points to obtain reaction rates. The test inhibitor compounds were assayed in duplicate, at half-log serial dilutions over a range of concentrations (e.g. starting at 50 μM or 5 μM as the high compound concentration). The percent Trk enzyme inhibition was calculated from the initial rates of the inhibited reactions relative to the uninhibited control. IC50 values were calculated by fitting the inhibition percent to the concentration of inhibitor [I] in the assay in equation 1 below, to solve for the IC50.
(§4) Inhibition %=100[I]/([I]+[IC50]) equation 1
(§5) The TrkB and TrkC in vitro assays were performed as described above, except that for these enzymes the assay ATP concentration targeted was 5 μM.

[3] = biological target: T3, TrkC (Homo sapiens, UniProt Q16288); assay: TrkC kinase inhibition, HTRF assay; conditions: LCK peptide substrate, assay ATP concentration targeted 5 μM
T3 construct: purchased Invitrogen PV3617
T3 sequence (Q16288 32-839): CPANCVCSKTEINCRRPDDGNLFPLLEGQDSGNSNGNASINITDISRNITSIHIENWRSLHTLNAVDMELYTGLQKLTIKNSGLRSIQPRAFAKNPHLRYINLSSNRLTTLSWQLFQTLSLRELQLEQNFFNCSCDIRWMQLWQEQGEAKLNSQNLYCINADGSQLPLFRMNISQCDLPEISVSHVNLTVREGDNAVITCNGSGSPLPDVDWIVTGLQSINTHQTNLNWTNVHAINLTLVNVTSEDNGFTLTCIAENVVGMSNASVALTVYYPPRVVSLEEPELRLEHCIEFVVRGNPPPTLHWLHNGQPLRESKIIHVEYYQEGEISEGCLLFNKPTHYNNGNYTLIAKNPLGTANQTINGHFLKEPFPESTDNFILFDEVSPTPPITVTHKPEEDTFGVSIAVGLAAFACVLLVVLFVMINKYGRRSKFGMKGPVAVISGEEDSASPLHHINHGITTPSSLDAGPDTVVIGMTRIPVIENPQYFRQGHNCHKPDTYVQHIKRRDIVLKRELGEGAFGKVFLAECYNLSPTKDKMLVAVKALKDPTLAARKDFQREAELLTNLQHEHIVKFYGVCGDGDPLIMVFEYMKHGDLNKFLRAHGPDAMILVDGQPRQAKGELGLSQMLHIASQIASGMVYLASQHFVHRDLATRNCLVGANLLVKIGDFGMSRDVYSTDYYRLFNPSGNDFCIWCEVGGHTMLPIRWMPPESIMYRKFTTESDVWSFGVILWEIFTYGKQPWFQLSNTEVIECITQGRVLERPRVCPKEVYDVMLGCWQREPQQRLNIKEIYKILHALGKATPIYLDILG
Protocol: as §1, §2, §3, §4, §5

T1 sequence (P04629 33-796): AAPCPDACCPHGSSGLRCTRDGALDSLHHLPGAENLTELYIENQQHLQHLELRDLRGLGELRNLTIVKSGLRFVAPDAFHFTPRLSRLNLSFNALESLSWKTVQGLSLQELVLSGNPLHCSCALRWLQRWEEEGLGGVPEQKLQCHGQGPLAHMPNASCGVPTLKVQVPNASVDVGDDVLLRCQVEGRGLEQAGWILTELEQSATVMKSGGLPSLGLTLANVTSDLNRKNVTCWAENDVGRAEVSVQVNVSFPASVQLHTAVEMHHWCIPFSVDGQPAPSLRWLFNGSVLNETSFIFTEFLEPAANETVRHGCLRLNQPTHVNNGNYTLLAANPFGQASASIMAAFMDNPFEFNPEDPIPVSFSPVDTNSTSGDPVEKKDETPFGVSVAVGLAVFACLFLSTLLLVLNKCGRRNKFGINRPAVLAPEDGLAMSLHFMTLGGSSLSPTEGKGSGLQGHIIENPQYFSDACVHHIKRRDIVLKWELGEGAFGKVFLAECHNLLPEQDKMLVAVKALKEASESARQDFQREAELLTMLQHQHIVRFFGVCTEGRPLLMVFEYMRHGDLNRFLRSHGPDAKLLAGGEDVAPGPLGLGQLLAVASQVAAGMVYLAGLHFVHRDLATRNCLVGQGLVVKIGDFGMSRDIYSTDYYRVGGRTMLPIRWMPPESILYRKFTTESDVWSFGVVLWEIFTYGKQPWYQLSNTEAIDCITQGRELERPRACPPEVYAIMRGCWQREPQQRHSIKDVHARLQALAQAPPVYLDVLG

| SMILES | IC50 [1] | IC50 [2] | IC50 [3] |
| --- | --- | --- | --- |
| CNC(=O)c1ccc(-c2cc(OC3CCOCC3)c3c(N)n[nH]c3c2)cc1N1CCN(CC2CCCC2)CC1 [Example 110, 4-[3-amino-4-(tetrahydro-2H-pyran-4-yloxy)-1H-indazol-6-yl]-2-[4-(cyclopentylmethyl)piperazin-1-yl]-N-methylbenzamide] | 2.73 nM | 1.63 nM | 2.58 nM |
| NC(=O)c1ccc(-c2cc(OC3CCCC3)c3c(N)n[nH]c3c2)cc1N1CCN(c2ccc(F)cc2)CC1 [Example 72, 4-[3-amino-4-(cyclopentyloxy)-1H-indazol-6-yl]-2-[4-(4-fluorophenyl)piperazin-1-yl]benzamide] | 17.5 nM | 4.92 nM | 5.35 nM |
| CNC(=O)c1ccc(-c2cc(OC(C)C(F)(F)F)c3c(N)n[nH]c3c2)cc1N1CCN(C2CCCCC2)CC1 (stereo not shown) [Example 35, 4-{3-amino-4-[(1,1,1-trifluoropropan-2-yl)oxy]-1H-indazol-6-yl}-2-(4-cyclohexylpiperazin-1-yl)-N-methylbenzamide] | 59.5 nM | 91.9 nM | 105 nM |
| CNC(=O)c1ccc(-c2cc(O[C@H](C)C(F)(F)F)c3c(N)n[nH]c3c2)cc1N1CCN(C2CCCCC2)CC1 [Example 56, 4-(3-amino-4-{[(2R)-1,1,1-trifluoropropan-2-yl]oxy}-1H-indazol-6-yl)-2-(4-cyclohexylpiperazin-1-yl)-N-methylbenzamide] | 80 nM | 27.8 nM | 37.1 nM |
| CC(=O)N1CCN(c2cc(-c3cc(OC4CCCC4)c4c(N)n[nH]c4c3)ccc2C(N)=O)CC1 [Example 77, 2-(4-acetylpiperazin-1-yl)-4-[3-amino-4-(cyclopentyloxy)-1H-indazol-6-yl]benzamide] | 51.1 nM | 84.4 nM | 158 nM |
| NC(=O)c1ccc(-c2cc(OC3CCOCC3)c3c(N)n[nH]c3c2)cc1N1CCN(c2cccc(Cl)c2)CC1 [Example 12, 4-[3-amino-4-(tetrahydro-2H-pyran-4-yloxy)-1H-indazol-6-yl]-2-[4-(3-chlorophenyl)piperazin-1-yl]benzamide] | 2.9 nM | – | – |
| CNC(=O)c1ccc(-c2cc(O[C@H](C)C(F)(F)F)c3c(N)n[nH]c3c2)cc1N1CCOC(CC(C)C)C1 (stereo partly drawn) [Example 58, 4-(3-amino-4-{[(2R)-1,1,1-trifluoropropan-2-yl]oxy}-1H-indazol-6-yl)-2-(2-isobutylmorpholin-4-yl)-N-methylbenzamide] | 673 nM | – | – |
| NC(=O)c1ccc(-c2ccc3c(N)n[nH]c3c2)cc1N1CCN(C2CCCCC2)CC1 [Example 85, 4-(3-amino-1H-indazol-6-yl)-2-(4-cyclohexylpiperazin-1-yl)benzamide] | 2240 nM | – | – |
| CNC(=O)c1ccc(-c2cc(O[C@@H](C)C(F)(F)F)c3c(N)n[nH]c3c2)cc1N1CCN(c2cccnc2)CC1 [Example 41, 4-(3-amino-4-{[(2S)-1,1,1-trifluoropropan-2-yl]oxy}-1H-indazol-6-yl)-N-methyl-2-[4-(pyridin-3-yl)piperazin-1-yl]benzamide] | 29.2 nM | – | – |
| CNC(=O)c1ccc(-c2cc(OC3CCOCC3)c3c(N)n[nH]c3c2)cc1N1CCN(CCC(F)(F)F)CC1 [Example 168, 4-[3-amino-4-(tetrahydro-2H-pyran-4-yloxy)-1H-indazol-6-yl]-N-methyl-2-[4-(3,3,3-trifluoropropyl)piperazin-1-yl]benzamide] | 11.6 nM | – | – |
| CNC(=O)c1ccc(-c2cc(OC3CCOCC3)c3c(N)n[nH]c3c2)cc1N1CCN(CC2CC2(F)F)CC1 (stereo not shown) [Example 173, 4-[3-amino-4-(tetrahydro-2H-pyran-4-yloxy)-1H-indazol-6-yl]-2-{4-[(2,2-difluorocyclopropyl)methyl]piperazin-1-yl}-N-methylbenzamide] | 16.4 nM | – | – |
| CNC(=O)c1ccc(-c2cc(OC3CCOCC3)c3c(C)n[nH]c3c2)cc1OCCOC1CCCCC1 [Example 126, 2-[2-(cyclohexyloxy)ethoxy]-N-methyl-4-[3-methyl-4-(tetrahydro-2H-pyran-4-yloxy)-1H-indazol-6-yl]benzamide] | 4.74 nM | – | – |
| CC(=O)c1ccc(-c2cc(OC3CCOCC3)c3c(N)n[nH]c3c2)cc1N1CCN(C2CC2)CC1 [Example 14, 1-{4-[3-amino-4-(tetrahydro-2H-pyran-4-yloxy)-1H-indazol-6-yl]-2-(4-cyclopropylpiperazin-1-yl)phenyl}ethanone] | 110 nM | – | – |
| NC(=O)c1ccc(-c2ccc3c(N)n[nH]c3c2)cc1N1CCN(c2ccccc2)CC1 [Example 84, 4-(3-amino-1H-indazol-6-yl)-2-(4-phenylpiperazin-1-yl)benzamide] | 24.3 nM | – | – |
| CNC(=O)c1ccc(-c2cc(OC3CCOCC3)c3c(C)n[nH]c3c2)cc1N1CCN(Cc2cccnc2)CC1 [Example 123, N-methyl-4-[3-methyl-4-(tetrahydro-2H-pyran-4-yloxy)-1H-indazol-6-yl]-2-[4-(pyridin-3-ylmethyl)piperazin-1-yl]benzamide] | 3.75 nM | – | – |
| CNC(=O)c1ccc(-c2cc(O[C@@H](C)C(F)(F)F)c3c(N)n[nH]c3c2)cc1N1CCN(c2ccccc2)CC1 [Example 39, 4-(3-amino-4-{[(2S)-1,1,1-trifluoropropan-2-yl]oxy}-1H-indazol-6-yl)-N-methyl-2-(4-phenylpiperazin-1-yl)benzamide] | 41.7 nM | – | – |
| CC(=O)Nc1ccc(-c2cc(OC3CCOCC3)c3c(C)n[nH]c3c2)cc1N1CCN(C2CCCCC2)CC1 [Example 119, N-{2-(4-cyclohexylpiperazin-1-yl)-4-[3-methyl-4-(tetrahydro-2H-pyran-4-yloxy)-1H-indazol-6-yl]phenyl}acetamide] | 31.1 nM | – | – |
| CNC(=O)c1ccc(-c2cc(OC3CCOCC3)c3cn[nH]c3c2)cc1N1CCN(C2CCCCC2)CC1 [Example 116, 2-(4-cyclohexylpiperazin-1-yl)-N-methyl-4-[4-(tetrahydro-2H-pyran-4-yloxy)-1H-indazol-6-yl]benzamide] | 77.8 nM | – | – |
| CNC(=O)c1ccc(-c2cc(OC3CCOCC3)c3c(C)n[nH]c3c2)cc1N1CCN(C(=O)C2CC2)CC1 [Example 124, 2-[4-(cyclopropylcarbonyl)piperazin-1-yl]-N-methyl-4-[3-methyl-4-(tetrahydro-2H-pyran-4-yloxy)-1H-indazol-6-yl]benzamide] | 19.2 nM | – | – |
| CC(=O)C(=O)Nc1ccc(-c2cc(OC3CCOCC3)c3c(C)n[nH]c3c2)cc1N1CCN(C2CCCCC2)CC1 [Example 133, N-{2-(4-cyclohexylpiperazin-1-yl)-4-[3-methyl-4-(tetrahydro-2H-pyran-4-yloxy)-1H-indazol-6-yl]phenyl}-2-oxopropanamide] | 15.9 nM | – | – |
| CC(=O)Nc1ccc(-c2cc(OC3CCOCC3)c3c(C)n[nH]c3c2)cc1N1CCN(Cc2ccc(Cl)o2)CC1 [Example 150, N-(2-{4-[(5-chloro-2-furyl)methyl]piperazin-1-yl}-4-[3-methyl-4-(tetrahydro-2H-pyran-4-yloxy)-1H-indazol-6-yl]phenyl)acetamide] | 74.5 nM | – | – |
| CC(Oc1cc(-c2ccc(C(N)=O)c(N3CCN(C4CC4)CC3)c2)cc2[nH]nc(N)c12)C(F)(F)F (stereo not shown) [Example 97, 4-{3-amino-4-[(1,1,1-trifluoropropan-2-yl)oxy]-1H-indazol-6-yl}-2-(4-cyclopropylpiperazin-1-yl)benzamide] | 27.3 nM | – | – |
| CC(=O)Nc1ccc(-c2cc(OC3CCCC3)c3c(C)n[nH]c3c2)cc1NCCOc1ccccc1 [Example 127, N-{4-[4-(cyclopentyloxy)-3-methyl-1H-indazol-6-yl]-2-[(2-phenoxyethyl)amino]phenyl}acetamide] | 49 nM | – | – |
| CCNC(=O)c1ccc(-c2cc(OC3CCCC3)c3cn[nH]c3c2)cc1N1CCN(c2ccccc2)CC1 [Example 120, 4-[4-(cyclopentyloxy)-1H-indazol-6-yl]-N-ethyl-2-(4-phenylpiperazin-1-yl)benzamide] | 82.5 nM | – | – |
